According to patent US10118891B2, “Organosulfur compounds for the prevention and treatment of neurodegenerative diseases” (Allium Vitalis, Inc., priority 2011, dated 2018):
≈ marks a conversion by molar mass, not a printed value.

Experiments:
[1] = test system: protein carbonyls in synaptosomal membranes; settings: cited from earlier work
[2] = experimental self-consumption by the applicant, tolerability; assay type: in vivo, human; settings: 240 mg/day for several weeks
[3] = cited from earlier work
[4] = test system: ischemia; settings: ischemia with elevation of HNE; cited from earlier work
[5] = test system: Ehrilich ascites tumor cells; settings: intracellular concentrations up to 0.6 mM; cited from earlier work
[6] = partition coefficient (Log P), oil and water system; assay type: physicochemical; settings: worked out from Log P
Text: Lipophilic molecule: Attracted to lipids. A molecule is lipophilic if it preferentially partitions into the oily side of an oil and water system.

[7] = oil and water system; cited from earlier work
[8] = test system: glutathione content of cells; settings: daily dosage of 1000 mg, multiple myeloma patients, with arsenic trioxide; cited from earlier work

Q: For Acrolein, which “protein carbonyls, "C+Acrolein" bar” value ([1]; synaptosomal membranes, acrolein without GEE pretreatment) is on record?
A: The value was 552 % of "Control".

Q: Which “protein carbonyls, % of Control” value ([1]; GEE alone, no acrolein) does the source give for `CCOC(=O)CNC(=O)[C@H](CS)NC(=O)CC[C@H](N)C(=O)O` [GEE, Glutathione Ethyl Ester] here?
A: Its value is 85%.

Q: What about the “protein carbonyls, "GEE+Acrolein" bar” value ([1]; synaptosomal membranes pretreated with GEE (3 hours), then acrolein) of the same compound?
A: The value was 163 % of "Control".

Q: What does the source list for `C=CCS` [allyl mercaptan, AllylThiol]?
A: negative effects on consumption [2]: without any apparent negative effects; standard comprehensive blood test at the end of the experiment [2]: essentially normal; solubility in water [3]: 5000 µg/mL (≈ 67.4 mM)

Q: Which “effect of treatment in ischemia” value [4] does the source give for `CC1=NN(c2ccccc2)C(=O)C1` [edaravone] here?
A: Its value is “protective effect”.

Q: What does the source list for `CC(O)C=CC=O` (stereo not drawn) [HPE]?
A: effect on protein sulfhydryls or enzyme activities [5]: no effect; low molecular weight thiols [5]: depleted

Q: For `CCCS` [propyl mercaptan, 1-PropaneThiol], which “ratio of concentration on the oily side to the aqueous side” value [6] is on record?
A: Its value is about 100.

Q: And the “partition coefficient (Log P)” value [7]?
A: The value was 1.95.

Q: Which “glutathione depletion, mean percentage decrease” value [8] does the source give for `O=C1O[C@H]([C@@H](O)CO)C(O)=C1O` [vitamin C] here?
A: Its value is 60%.
